One molecule from patent publication US10472663B2, “Procedure for the rapid determination of bacterial susceptibility to antibiotics that inhibit protein synthesis” (ABM TECHNOLOGIES, LLC, priority 2015, dated 2019) can be followed below.

Molecules are shown by their SMILES.

Common to all, as to type: cell-based
For assay [1], the system named is Escherichia coli. Briefly: Micromax assay of mitomycin C-induced DNA fragmentation after tobramycin (Example 2). The following applies: for DNA fragmentation of nucleoids: tobramycin 4 μg/ml 30 min followed by mitomycin C 50 μg/ml 60 min. The method, then: FIGS. 7-9 depict a TG1 strain susceptible to the aminoglycoside tobramycin, an inhibitor of protein synthesis, and mitomycin C, an agent which induces DNA damage. The other strain illustrated in FIGS. 10-12 was a clinical isolate resistant to tobramycin.
One portion of both bacterial strains was incubated with tobramycin at 4 μg/ml for 90 min (FIGS. 7 and 10), a dosage indicated by the CLSI as the breakpoint of susceptibility to tobramycin in the standard antibiogram based on microdilution. Another portion of both strains was incubated with mitomycin C at 50 μg/ml for 60 min (FIGS. 8 and 11). Still another portion of both strains was incubated with tobramycin at 4 μg/ml for 30 min followed by mitomycin C at 50 μg/ml for 60 min, without removing the tobramycin (FIGS. 9 and 12). A final portion was left with no antibiotic.
After incubation, cells were processed using a variant of the Micromax technology to visualize nucleoids, i.e. bacterial chromosomal DNA, in all the cells of the population. Samples from cells from the culture are immersed in an agarose microgel on a slide and incubated with a specific lysing solution to remove the cell wall in all the cells and release in the microgel the nucleoids contained inside the bacteria. These are dried, stained with a highly sensitive fluorochrome for DNA like SYBR Gold and visualized under fluorescence microscopy, Nucleoids from E. coli obtained using the Micromax assay are represented in FIGS. 7-12, FIGS. 7-9 correspond to a strain susceptible to tobramycin (TG1) and FIGS. 10-12 to a strain resistant to tobramycin.

The test system of a further assay is Klebsiella pneumoniae. Nature of the assay: Variant Micromax assay of cell wall damage by meropenem after tobramycin, twelve strains. The following applies: for cell wall lysis by meropenem: tobramycin 4 μg/ml 15 min followed by meropenem 1 μg/ml 60 min. On the procedure:
After incubation cells were processed using a variant Micromax technology to visualize the affectation or not of the cell wall based on the release or not of the nucleoids contained inside the bacteria. In the same manner described previously, samples from cells from the culture are immersed in an agarose microgel on a slide and incubated with a specific lysing solution that removes the cell wall only in those bacteria whose peptidoglycan was affected, thus releasing in the microgel the nucleoids contained inside. […] The processed bacteria in microgel are dried, stained with a high sensitive fluorochrome for DNA like SYBR Gold and visualized under fluorescence microscopy.
Further exemplifying the concept described above twelve strains of Klebsiella pneumoniae, 7 susceptible and 5 resistant to tobramycin, were processed using the same rationale and procedure. Specifically, one portion of each was incubated with tobramycin at 4 μg/ml for 75 min. Another portion was incubated with Meropenem at 1 μg/ml for 60 min. Still another portion was incubated with tobramycin at 4 μg/ml for 15 minutes followed by meropenem at 1 μg/ml for 60 min, without removing the tobramycin. A final portion remained without any antibiotics.

The test system of assay [2] is Escherichia coli. Nature of the assay: Variant Micromax assay of cell enlargement by low-dose mitomycin C after tobramycin (Example 8). On the procedure:
As an example, two strains of Escherichia coli exponentially growing in Mueller-Hinton broth were incubated under four different conditions and then assayed. One strain was susceptible and the other resistant to the aminoglycoside tobramycin (an inhibitor of protein synthesis). For the purpose of rapidly distinguishing susceptible and non-susceptible strains to tobramycin each strain was incubated under four conditions.
A portion of each strain was incubated with tobramycin at 4 μg/ml for 90 minutes. As described previously, this dose is indicated by the CLSI as the breakpoint of susceptibility to tobramycin in the standard antibiogram based on microdilution. Another portion of both strains was incubated in Mitomycin C at 0.5 μg/ml for 60 minutes. Still another portion of each strain was incubated with tobramycin at 4 μg/ml for 30 minutes followed by mitomycin C at 0.5 μg/ml for 60 minutes, without removing the tobramycin. A final portion of both strains was not incubated with either antibiotic.
After the incubation, cells were processed using a variant Micromax technology to visualize any enlargement or not of the bacteria. Samples from cells from the culture were immersed in an agarose microgel on a slide, dried, stained with a highly sensitive fluorochrome for DNA like SYBR Gold and visualized under fluorescence microscopy to visualize cell shape and size. Images were similar those correspondent to the previous figure.

Regarding `NC[C@H]1O[C@H](O[C@H]2[C@H](O)[C@@H](O[C@H]3O[C@H](CO)[C@@H](O)[C@H](N)[C@H]3O)[C@H](N)C[C@@H]2N)[C@H](N)C[C@@H]1O` [tobramycin], the “DNA fragmentation of nucleoids” value with Escherichia coli [1] (tobramycin-resistant clinical isolate) is “the DNA remained fragmented”; in the assay on Escherichia coli [1] (tobramycin-susceptible TG1 strain), “nucleoids without observable DNA fragmentation”. Besides, the modification of nucleoids result in the assay on Escherichia coli [1] (tobramycin alone 4 μg/ml 90 min, both strains) is given as “does not result in modifications of the nucleoids”. In addition, the “strains resistant to tobramycin” value with Klebsiella pneumoniae (of twelve strains) came out at 5. In the assay on Klebsiella pneumoniae (of twelve strains), the “strains susceptible to tobramycin” value was 7. The “cell wall lysis by meropenem” value is recorded as “the affectation of the cell wall by meropenem was not suppressed” in the assay with Klebsiella pneumoniae (tobramycin-resistant strains) and “no appearance of cell wall lysis by meropenem” in the assay with Klebsiella pneumoniae (tobramycin-susceptible strains). In the assay with Escherichia coli [2] (tobramycin 4 μg/ml 30 minutes followed by mitomycin C 0.5 μg/ml 60 minutes, tobramycin-resistant strain), the cell enlargement result is listed as “appeared enlarged”. Further, in the assay on Escherichia coli [2] (tobramycin alone 4 μg/ml 90 minutes, both strains), the “bacterial shape and size” value is “does not affect bacterial shape and size”.
